The values that follow are results of earlier work, collected in patent US20230025286A1, “PHARMACEUTICAL COMPOSITION COMPRISING ELTROMBOPAG BIS(MONOETHANOLAMINE)” (SYNTHON B.V., priority 2019, published 2023).

For data set [1] the following is noted: background statement, no method or value given.
For data set [2] the following is noted: background statement, no method or value given. This is another data set of the same source.

For the compound `CC1=NN(c2ccc(C)c(C)c2)C(=O)/C1=N\Nc1cccc(-c2cccc(C(=O)O)c2)c1O.NCCO.NCCO` [Eltrombopag bis(monoethanolamine), 3′-{(2Z)-2-[1-(3,4-dimethylphenyl)-3-methyl-5-oxo-1,5-dihydro-4H-pyrazol-4-ylidene]hydrazino}-2′-hydroxy-3-biphenylcarboxylic acid bis(monoethanolamine)], in data set [1], the solubility result was “low”. In addition, the permeability result in data set [2] is on record as “medium”.
